Experimental data from US20030225230A1, “Polymers for antifouling coatings and a process for the preparation thereof” (Jotun A/S, priority 1995, published 2003).

How the values were obtained:
[1] = Determination of the hydrolysis rate of monomers in alkaline environment (pH 12); type: physicochemical; details: monomer in aqueous solution, starting pH 12, 25 °C

Row | Molecule | Hydrolysis Rate (4.5 h) [1] [%] | Hydrolysis Rate after 24 h [1] [%] | melting point [°C]
1 | 2-Methacryloyloxymethylbenzoate | 64.4 |  | 
2 | 4-Methacryloyloxymethylbenzoate |  | 54.8 | 
3 | C=C(C)C(=O)Oc1c(Br)cc(Br)cc1Br [2,4,6-Tribromophenylmethacrylate] |  | 13.3 | 140
4 | C=C(C)C(=O)Sc1nc(-c2ccccc2)ns1 [3-Phenyl-5-methacryloylthio-1,2,4-thiadiazole] |  | 12.6 | 110
5 | C=C(C)C(=O)Sc1ccc(Cl)cc1 [4-Chlorothlophenylmethacrylate] |  | 78.0 | 
6 | C=C(C)C(=O)Oc1ccc(NC(C)=O)cc1 [4-Methacryloyloxy acetanilide] |  | 32.9 | 
7 | C=C(C)C(=O)Oc1ccc(OC)cc1 [4-Methoxyphenylmethacrylate] |  | 43.2 | 40
8 | C=C(C)C(=O)Oc1ccc(Br)cc1C=O [5-Bromo-2-methacryloyloxybenzaldehyde] |  | 35.6 | 52
9 | C=C(C)C(=O)OCC(=O)O [Methacryloytoxy acetic acid] |  | 70.1 | 
10 | C=C(C)C(=O)OCC(=O)OC [Methoxycarbonylmethylmethacrylate] | 63.1 |  | 60
11 | C=C(C)C(=O)OCC(=O)OC(C)(C)C [t-Butoxycarbonylmethylmethacrylate] |  | 77.6 | 65
12 | Ethyloxythioglycolic acid methacrylate |  | 80.2 | 
